Experimental findings from ChEMBL document CHEMBL3507680, “University of Dundee, Gates Library screen for HepG2 cell viability” are described below.

The series in a line: Human HepG2 cell viability assay in 384 well format. The conditions noted are these: HepG2 cells, read-out: Inhibition. Format: toxicity, cell-based. Further details: dose 125 nL, time 70.5 hour; cytotoxicity at 70.5 h: concentration not given beside the values.
Take `CSCc1noc(CN2CCC3(CC2)CC(=O)N(CC=C(C)C)C3)n1`: the cytotoxicity at 70.5 h was -11.8%.

For the compound `O=C(c1cc[nH]n1)N1CCC(c2nccn2Cc2ccncc2)CC1`, the cytotoxicity at 70.5 h came out at 0.529%.

Consider `O=C(c1ccc(Cl)o1)N1CCCC1c1nnc2n1CCCCC2` (stereo unspecified), for which the cytotoxicity at 70.5 h was 1.9%.

As to `CC(C)c1ccc(OCCC(=O)N2CCC(CC(N)=O)CC2)cc1`, the cytotoxicity at 70.5 h is -3.31%.

For `O=C(CCc1ccsc1)NCc1ccnc(OC2CCOCC2)c1`, the cytotoxicity at 70.5 h is -5.9%.

`Cc1cccc(N2CC[C@H]3[C@H]2CCN3C(=O)c2cnn(C)c2)n1`: the cytotoxicity at 70.5 h is -8.26%.

As for `CC(C)CC(=O)N1CCC2(CC1)OC(C(N)=O)Cn1ccnc12` (stereo unspecified), the cytotoxicity at 70.5 h is -8.87%.

As to `Cc1ccc(CN(CCCO)Cc2nc3ccccc3[nH]2)s1`, the cytotoxicity at 70.5 h was -3.29%.

For the compound `CCN(CC)C(=O)CN(C)Cc1nc2c(cnn2C)c(=O)[nH]1`, the cytotoxicity at 70.5 h was -10.6%.

For the compound `COc1ccccc1C(C)(C)NCc1ccc(C)o1`, the cytotoxicity at 70.5 h was -5.83%.

`CNc1nc(C)c(C(=O)N2CCCCC2CCN2CCOCC2)s1` (stereo unspecified): the cytotoxicity at 70.5 h is -0.313%.

`Cc1ccc(S(=O)(=O)NC[C@H]2OC[C@@H](NCc3ccccc3)[C@@H]2O)cc1`: the cytotoxicity at 70.5 h is -10%.

Take `COC(=O)c1cccc(S(=O)(=O)NC(=O)c2cccc(OC)c2OC)c1`: the cytotoxicity at 70.5 h is -6.86%.

Take `Oc1ccc(N2CCC(Cc3ccccc3)CC2)nn1`: the cytotoxicity at 70.5 h is -4.56%.

In the case of `O=C1CC2(CCN(c3nncs3)C2)CN1c1ccc2c(c1)OCCO2` (stereo unspecified), the cytotoxicity at 70.5 h was -1.06%.

`CN1CC(c2ccccc2)CC2(CCN(CC(=O)N(C)C)CC2)C1` (stereo unspecified): the cytotoxicity at 70.5 h was -8.78%.

For the compound `OCCCN(CCc1cccc(F)c1)C1CC1`, the cytotoxicity at 70.5 h is -4.09%.

Regarding `CCN(CC)CCn1cnc(-c2ccccc2)c1-c1cnc(C)s1`, the cytotoxicity at 70.5 h was -7.41%.

For `c1ccc(CN2CC[C@]3(C[C@@H](Oc4ccccn4)CO3)C2)nc1`, the cytotoxicity at 70.5 h worked out at 19.9%.

Take `Cc1cc(C(=O)N2CCc3nc(C4CCCCN4)ncc3C2)cs1` (stereo unspecified): the cytotoxicity at 70.5 h is -7.25%.

Turning to `FC(F)(F)c1nnc2n1CCN(c1nc(C3CC3)ns1)C2`, the cytotoxicity at 70.5 h was -1.08%.

Take `O=C(c1ncccn1)N1C[C@@H]2CC[C@H](Oc3cccc(F)c3)[C@@H]2C1`: the cytotoxicity at 70.5 h was -6.95%.

For the compound `COC(=O)c1cccc(NCC(=O)NC(N)=O)c1`, the cytotoxicity at 70.5 h stood at 12.1%.

As to `Cc1ccc2c(c1)C1(CCNCC1)CN2C(=O)C(C)C`, the cytotoxicity at 70.5 h stood at 18.3%.

`Cc1nn(-c2ccccn2)c(C)c1[C@@H]1C=C[C@@H](NC(=O)NC(C)C)C1`: the cytotoxicity at 70.5 h amounted to 0.445%.

Regarding `O=C(c1ccc2[nH]c(=O)[nH]c2c1)N1CCC(Nc2cccnn2)CC1`, the cytotoxicity at 70.5 h is -9.22%.

With `CC(=O)N1CCCc2ccc(S(=O)(=O)N3CCCCC3C)cc21` (stereo unspecified), the cytotoxicity at 70.5 h was -3.92%.

Turning to `CN(Cc1ccc2c(c1)OCCO2)C(=O)Cn1cccnc1=O`, the cytotoxicity at 70.5 h worked out at 3.46%.

Regarding `CC(C)CC(=O)N1CC[C@@H]2CN(Cc3cccnc3)S(=O)(=O)[C@@H]2CC1`, the cytotoxicity at 70.5 h is -4.78%.

Turning to `CN1CCC(Cc2noc(-c3cccc(Oc4ncccn4)c3)n2)CC1`, the cytotoxicity at 70.5 h is -2%.

As to `CC(C)=CCCC(C)CN1CCC(n2cc(C(=O)NCCO)nn2)CC1` (stereo unspecified), the cytotoxicity at 70.5 h was -4.56%.

Regarding `CN(C[C@@H]1CCC[C@@H]2CN(Cc3cccnc3)C[C@@H]21)C1CC1`, the cytotoxicity at 70.5 h was -1.32%.

Take `CNS(=O)(=O)CC(=O)NC(c1cc(C)sc1C)C(C)C` (stereo unspecified): the cytotoxicity at 70.5 h was 2.55%.

Regarding `O=C(Cc1ccc(-n2cccn2)cc1)N1CCCC(n2cccn2)C1` (stereo unspecified), the cytotoxicity at 70.5 h worked out at 17.4%.

For the compound `O=C(C1CCCC1)N1C[C@@H](c2ccsc2)[C@@H]2CN(C3CCCC3)CC[C@@H]21`, the cytotoxicity at 70.5 h is -8.32%.

Turning to `COCCN(C)C(=O)c1ccc2onc(-c3coc(C)n3)c2c1`, the cytotoxicity at 70.5 h is -16.8%.

On to `CC(C)c1nc2oc(C(=O)N3CCOCC3)c(N)c2c2c1CCCC2`, for which the cytotoxicity at 70.5 h is -16.6%.

In the case of `Cc1ccc(NCCCNC(=O)NCc2c(C)cc(C)[nH]c2=O)nc1`, the cytotoxicity at 70.5 h is -10.4%.

For the compound `O=C(Nc1ccc(F)c(F)c1)N1CCC2(CCC(=O)N(C3CC3)C2)CC1`, the cytotoxicity at 70.5 h is -5.15%.

On to `Cc1cc(NCc2nnc3n2CCCCC3)n2nc(C)c(C)c2n1`, for which the cytotoxicity at 70.5 h is -5.75%.

As for `CC/N=c1/c(NC(=O)C2CC2)c(O)oc2ccccc12`, the cytotoxicity at 70.5 h is 35.8%.

Turning to `c1cc(CN2CCc3ncc(CN4CCCCC4)n3CC2)cs1`, the cytotoxicity at 70.5 h is 19.1%.

`CC(=O)N[C@@H]1CN(Cc2ccco2)C[C@H]1c1ccc(C)o1`: the cytotoxicity at 70.5 h was -6.07%.

Take `Cc1ccc(S(=O)(=O)N2C[C@H]3C[C@H](NC(=O)c4cnn(C)c4)[C@H]3C2)cc1`: the cytotoxicity at 70.5 h turned out to be 33.7%.

On to `CC(=O)NCc1nc(CC(C)C)nn1-c1cccc(C)c1`, for which the cytotoxicity at 70.5 h is -2.35%.

As to `CCS(=O)(=O)N1C[C@H](c2nc(C)no2)C[C@H]2OCC[C@H]21`, the cytotoxicity at 70.5 h is 5.21%.

For the compound `c1ccc2c(c1)CC(n1ccnc1-c1cc3n(n1)CCCNC3)CO2` (stereo unspecified), the cytotoxicity at 70.5 h is -6.83%.

For `COc1ccc(OCCNCCn2cccn2)cc1`, the cytotoxicity at 70.5 h was 3.51%.

On to `CS(=O)(=O)N1CCOCC2(CCN(C(=O)c3ccco3)CC2)C1`, for which the cytotoxicity at 70.5 h was -8.61%.

For the compound `COc1ncccc1CNC(=O)c1cccnc1O`, the cytotoxicity at 70.5 h was -8.53%.

Turning to `Cc1cc(NC(=O)C(C)N2CCN(c3nc(C)ns3)CC2)on1` (stereo unspecified), the cytotoxicity at 70.5 h worked out at 4.54%.

For the compound `Cc1ccc(NC(=O)NCCCc2n[nH]c(N)c2C#N)cc1`, the cytotoxicity at 70.5 h was -3.1%.

In the case of `O=C(c1ccn(-c2ccccc2Cl)n1)N1CCSCC1`, the cytotoxicity at 70.5 h is -14.1%.

As for `Cc1cnn(CC2CN(CCS(=O)(=O)C(F)(F)F)CCO2)c1` (stereo unspecified), the cytotoxicity at 70.5 h was found to be 23.8%.

As to `CC(=O)c1cc(CC(=O)NCc2ccsc2)cs1`, the cytotoxicity at 70.5 h was -1.03%.

On to `O=C(NCC1Cn2nnc(-c3ccncc3)c2CO1)c1ccsc1` (stereo unspecified), for which the cytotoxicity at 70.5 h was found to be 1.38%.

On to `CCn1c(CN2CCC(O)(C(=O)OC)CC2)nc2c(F)cccc21`, for which the cytotoxicity at 70.5 h was 31.2%.

For `O=C(NCC1CC1)C1=NOC2(CCN(S(=O)(=O)c3ccc(F)cc3)C2)C1` (stereo unspecified), the cytotoxicity at 70.5 h was -0.024%.

Regarding `COCc1nc(C2CC2)nn1-c1cc(Cl)ccc1OC`, the cytotoxicity at 70.5 h is -3.71%.

For the compound `CS(=O)(=O)N1CCC(c2cncc(Cl)n2)CC1`, the cytotoxicity at 70.5 h is 27.2%.

In the case of `CC(=O)N1CCC2(CCCN(C(=O)c3ccc(Cl)c(C(F)(F)F)c3)C2)C1` (stereo unspecified), the cytotoxicity at 70.5 h is -14.2%.

As to `O=C(C1=CC2(CCN(CCO)CC2)c2ccccc21)N1CCCC1`, the cytotoxicity at 70.5 h was -4.5%.

For the compound `COCCC(=O)N1CCCC1c1nccnc1Nc1ncccn1` (stereo unspecified), the cytotoxicity at 70.5 h was found to be 16.8%.

Take `O=C1CO[C@@H]2CN(C(=O)CCc3ccccc3)C[C@H]2N1`: the cytotoxicity at 70.5 h was -5.06%.

Turning to `CN(Cc1cccs1)C1CCC[C@@H]2CN(C(=O)c3cnccn3)C[C@H]12` (stereo partly specified), the cytotoxicity at 70.5 h was -7.78%.

On to `CNC(=O)c1cc2ccccc2n1C`, for which the cytotoxicity at 70.5 h was determined as 16.4%.

Take `CCCN(CCC)S(=O)(=O)N(C)Cc1ccncc1`: the cytotoxicity at 70.5 h is -12.4%.

For `CCOC1COC2(CCN(S(=O)(=O)c3cccc(F)c3)CC2)C1` (stereo unspecified), the cytotoxicity at 70.5 h was -15.5%.

Take `CCc1c(C(=O)N2CCC3(CCCN(CCO)C3=O)C2)csc1C` (stereo unspecified): the cytotoxicity at 70.5 h came out at 6.16%.

With `CCOCC1CC2(CCN(C(=O)c3ccc4ccccc4n3)CC2)CO1` (stereo unspecified), the cytotoxicity at 70.5 h was -13.3%.

On to `Cn1nc(C(=O)N2CCCC2)c2c1CN(CC1CCOCC1)C2`, for which the cytotoxicity at 70.5 h was determined as 4.3%.

For `O=C(NC1CC1)c1ccn(COc2c(Cl)cccc2Cl)n1`, the cytotoxicity at 70.5 h is -14.6%.

On to `CCN(C)C(=O)c1ccc(N(C)Cc2cc(-c3cccnc3)no2)nc1`, for which the cytotoxicity at 70.5 h is 0.809%.

`OC(CN(Cc1ccccc1)Cc1ccon1)c1ccco1` (stereo unspecified): the cytotoxicity at 70.5 h is -7.07%.

In the case of `Cc1cnc(N2C[C@H]3CCN(CC4CC4)C[C@@H]3C2)nc1`, the cytotoxicity at 70.5 h worked out at 7.8%.

`CC(=O)NCC(=O)N1CCc2nc(-c3ccccc3)nc(C)c2CC1`: the cytotoxicity at 70.5 h is -5.16%.

As for `CN(C)c1cc(C2CCCN(S(=O)(=O)c3cn[nH]c3)C2)ccn1` (stereo unspecified), the cytotoxicity at 70.5 h is -1.45%.

Regarding `CC(C)N1CCC(CC(=O)NC(C(=O)O)c2ccc(F)cc2)CC1` (stereo unspecified), the cytotoxicity at 70.5 h was -10.8%.

With `c1ccc(CCc2n[nH]c(CCN3CCCCC3)n2)cc1`, the cytotoxicity at 70.5 h is -13.4%.

As for `O=C(CC1CC1)N1CCC2(CC1)CN(c1ccsc1)C(=O)CO2`, the cytotoxicity at 70.5 h was -2.64%.

Take `CCS(=O)(=O)N1C[C@@H](OCc2cccnc2)[C@H]2OCCC[C@H]21`: the cytotoxicity at 70.5 h worked out at 6.52%.

As for `Cc1nnc(C2Cc3ccccc3CN2Cc2nc(C(C)C)no2)o1` (stereo unspecified), the cytotoxicity at 70.5 h was 1.77%.

On to `CN(C)CCCN1CC2(CCN(C(=O)C3(C)CCCCO3)CC2)OC1=O` (stereo unspecified), for which the cytotoxicity at 70.5 h is 17.7%.

Turning to `COCCN1C[C@@H]2[C@@H](OC)CCN(Cc3ccco3)[C@@H]2C1`, the cytotoxicity at 70.5 h was -3.76%.

As for `Cn1c(C(=O)NCC2(N)CCCC2)cc2ccccc21`, the cytotoxicity at 70.5 h amounted to 3.39%.

Take `O=C(c1cccs1)N1CCCC(c2cc(C(F)F)n3ncnc3n2)C1` (stereo unspecified): the cytotoxicity at 70.5 h turned out to be 0.957%.

Regarding `c1cc(CN2C[C@H](OCC3CCOCC3)[C@H]3COC[C@H]32)cs1`, the cytotoxicity at 70.5 h was -7.76%.

For the compound `CCC(CC)C(CNC(=O)Nc1cc(C)nn1C)N1CCOCC1` (stereo unspecified), the cytotoxicity at 70.5 h was 36.9%.

Consider `CCN(CC)C(=O)N1CCN(C2=NCC(C)S2)CC1` (stereo unspecified), for which the cytotoxicity at 70.5 h is -9.33%.

`O=C(COc1cccc2c1CCC2=O)NCCOc1ccccc1`: the cytotoxicity at 70.5 h was found to be 15.4%.

With `CCC1=N[C@@]2(CC[C@@H]3CN(S(C)(=O)=O)C[C@@H]32)C(=O)N1CC(C)C`, the cytotoxicity at 70.5 h is -1.52%.

Turning to `COc1ccc(S(=O)(=O)NC(=O)COC2CCCCC2)cc1`, the cytotoxicity at 70.5 h is -7.04%.

On to `CCN(Cc1nc(COC)no1)C(=O)CCn1c(C)cc2ccccc21`, for which the cytotoxicity at 70.5 h was -0.00353%.

Turning to `CN1CCCN(CC(=O)N2CCc3[nH]c(-c4ccccc4)nc3C2)CC1`, the cytotoxicity at 70.5 h is -1.3%.

As for `CCS(=O)(=O)NCC1Cn2nnc(-c3cccc(C)c3)c2CO1` (stereo unspecified), the cytotoxicity at 70.5 h was -5.93%.

For the compound `CSCC[C@@H](CO)n1ccnc1-c1nccn1C`, the cytotoxicity at 70.5 h was -5.66%.
